The values below come from US20070128217A1 (priority 2003, published 2007).

For assay [1], the system named is control sera (pooled serum of ten healthy LUMC hospital workers; commercial negative donor pooled serum from the Dutch bloodbank). Type of assay: binding, human. Also on record: Binding of Control serum LUMC to linear peptides / Binding of Control serum Blood-bank to linear peptides / Binding of Control serum LUMC to looped peptides / Binding of Control Serum Blood-Bank to Looped peptides / Binding of Control serum LUMC to linear peptides of the protein M of SARS-CoV Urbani / Binding of Control serum Blood-bank to linear peptides of the protein M of SARS-CoV Urbani / Binding of Control serum LUMC to looped peptides of the protein M of SARS-CoV Urbani / Binding of Control Serum Blood-Bank to Looped peptides of the protein M of SARS-CoV Urbani: unit not given here.

The subject of assay [2] is antibodies in sera from SARS patients (sera 1a, 1b, 2, 6, 37, 62, London, SARS-yellow, SARS-green). In kind it is binding, human. Also on record: Binding of serum 6 to linear peptides of protein X1 of SARS-CoV Urbani / Binding of serum 37 to linear peptides of protein X1 of SARS-CoV Urbani / Binding of serum 6 to looped/cyclic peptide (PEPSCAN-ELISA) / Binding of serum 37 to looped/cyclic peptide (PEPSCAN-ELISA) / Binding of serum 37 to looped/cyclic peptides of protein X1 of SARS-CoV Urbani / Binding of serum 6 to linear peptides of protein X2 / Binding of serum 37 to linear peptides of protein X2 / Binding of serum 37 to looped/cyclic peptides of protein X2 of SARS-CoV Urbani / Binding of serum 6 to linear peptides of protein M of SARS-CoV Urbani / Binding of serum 37 to linear peptides of protein M of SARS-CoV Urbani / Binding of serum 6 to looped/cyclic peptides of protein M of SARS-CoV Urbani / Binding of serum 37 to looped/cyclic peptides of protein M of SARS-CoV Urbani / Binding of serum 6 to linear peptides of protein X3 of SARS-CoV Urbani / Binding of serum 37 to linear peptides of protein X3 of SARS-CoV Urbani / Binding of serum 37 to looped/cyclic peptides of protein X3 of SARS-CoV Urbani / Binding of serum 6 to linear peptides of protein X4 of SARS-CoV Urbani / Binding of serum 37 to linear peptides of protein X4 of SARS-CoV Urbani / Binding of serum 37 to looped/cyclic peptides of protein X4 of SARS-CoV Urbani / Binding of serum 6 to linear peptides of protein X5 of SARS-CoV Urbani / Binding of serum 37 to linear peptides of protein X5 of SARS-CoV Urbani / Binding of serum 37 to looped/cyclic peptides of protein X5 of SARS-CoV Urbani / Binding of serum 6 to linear peptides of protein N of SARS-CoV Urbani / Binding of serum 37 to linear peptides of protein N of SARS-CoV Urbani / Binding of serum 6 to linear peptide (PEPSCAN-ELISA) / Binding of serum 1a to looped/cyclic peptides of protein N of SARS-CoV Urbani / Binding of serum 1b to looped/cyclic peptides of protein N of SARS-CoV Urbani / Binding of serum 2 to looped/cyclic peptides of protein N of SARS-CoV Urbani / Binding of serum 6 to looped/cyclic peptides of protein N of SARS-CoV Urbani / Binding of serum 37 to looped/cyclic peptides of protein N of SARS-CoV Urbani / Binding of serum 62 to looped/cyclic peptides of protein N of SARS-CoV Urbani / Binding of serum London to looped/cyclic peptides of protein N of SARS-CoV Urbani / Binding of serum SARS-green to looped/cyclic peptides of protein N of SARS-CoV Urbani: unit not given here.

For assay [3], the system named is rabbit serum obtained by immunizing a rabbit with the SARS-CoV strain Frankfurt 1. Type of assay: binding. More on the design: Binding of a rabbit serum to linear peptides / Binding of a rabbit serum to looped peptides / Rabbit serum linear peptides / Rabbit serum looped peptides / Binding of a rabbit serum to linear peptides of protein N of SARS-CoV Urbani (Rabbit serum linear peptides) / Binding of a rabbit serum to looped/cyclic peptides of protein N of SARS-CoV Urbani (Rabbit serum looped peptides): unit not given here.

Consider LRLCAYCCNIVNVSL, for which, in assay [1], the “Binding of Control Serum Blood-Bank to Looped peptides” value is listed as 0.6, the “Binding of Control serum Blood-bank to linear peptides” value was 0.8, the “Binding of Control serum LUMC to linear peptides” value is 0.4 and the “Binding of Control serum LUMC to looped peptides” value came to 0.6. In assay [2], the “Binding of serum 1a to linear peptides of protein E of SARS-CoV Urbani” value was 0.7, the “Binding of serum 1a to looped/cyclic peptides of protein E of SARS-CoV Urbani” value came to 0.7, the “Binding of serum 1b to linear peptides of protein E of SARS-CoV Urbani” value is on record as 0.6 and the “Binding of serum 1b to looped/cyclic peptides of protein E of SARS-CoV Urbani” value came to 0.4. In addition, in assay [2], the “Binding of serum 2 to linear peptides of protein E of SARS-CoV Urbani” value was found to be 0.4, the “Binding of serum 2 to looped/cyclic peptides of protein E of SARS-CoV Urbani” value came out at 0.5, the “Binding of serum 6 to linear peptides of protein E of SARS-CoV Urbani” value is reported as 0.6 and the “Binding of serum 6 to looped/cyclic peptides of protein E of SARS-CoV Urbani” value turned out to be 0.4. Moreover, in assay [2], the “Binding of serum 37 to linear peptides of protein E of SARS-CoV Urbani” value came out at 0.7, the “Binding of serum 37 to looped/cyclic peptides of protein E of SARS-CoV Urbani” value was found to be 0.6, the “Binding of serum 62 to linear peptides of protein E of SARS-CoV Urbani” value was 0.7 and the “Binding of serum 62 to looped/cyclic peptides of protein E of SARS-CoV Urbani” value amounted to 0.6. Further, in assay [2], the “Binding of serum London to linear peptides of protein E of SARS-CoV Urbani” value was 0.5, the “Binding of serum London to looped/cyclic peptides of protein E of SARS-CoV Urbani” value was 0.4, the “Binding of serum SARS-green to linear peptides of protein E of SARS-CoV Urbani” value is 0.3 and the “Binding of serum SARS-green to looped/cyclic peptides of protein E of SARS-CoV Urbani” value amounted to 0.6. Besides, in assay [2], the “Binding of serum SARS-yellow to linear peptides of protein E of SARS-CoV Urbani” value amounted to 0.3 and the “Binding of serum SARS-yellow to looped/cyclic peptides of protein E of SARS-CoV Urbani” value is reported as 0.6. Also, in assay [3], the “Binding of a rabbit serum to linear peptides” value came to 0.6 and the “Binding of a rabbit serum to looped peptides” value was 0.2.

Turning to LTALRLCAYCCNIVN, in assay [1], the “Binding of Control Serum Blood-Bank to Looped peptides” value is 0.7, the “Binding of Control serum Blood-bank to linear peptides” value is 0.7, the “Binding of Control serum LUMC to linear peptides” value is recorded as 0.5 and the “Binding of Control serum LUMC to looped peptides” value was 0.6. For the same sequence, in assay [2], the “Binding of serum 1a to linear peptides of protein E of SARS-CoV Urbani” value worked out at 0.9, the “Binding of serum 1a to looped/cyclic peptides of protein E of SARS-CoV Urbani” value is 0.6, the “Binding of serum 1b to linear peptides of protein E of SARS-CoV Urbani” value was 0.8 and the “Binding of serum 1b to looped/cyclic peptides of protein E of SARS-CoV Urbani” value is recorded as 0.4. Moreover, in assay [2], the “Binding of serum 2 to linear peptides of protein E of SARS-CoV Urbani” value is listed as 0.4, the “Binding of serum 2 to looped/cyclic peptides of protein E of SARS-CoV Urbani” value is recorded as 0.7, the “Binding of serum 6 to linear peptides of protein E of SARS-CoV Urbani” value is given as 0.7 and the “Binding of serum 6 to looped/cyclic peptides of protein E of SARS-CoV Urbani” value was 0.5. Besides, in assay [2], the “Binding of serum 37 to linear peptides of protein E of SARS-CoV Urbani” value was 0.8, the “Binding of serum 37 to looped/cyclic peptides of protein E of SARS-CoV Urbani” value came out at 0.7, the “Binding of serum 62 to linear peptides of protein E of SARS-CoV Urbani” value was determined as 0.7 and the “Binding of serum 62 to looped/cyclic peptides of protein E of SARS-CoV Urbani” value came out at 0.7. In assay [2], the “Binding of serum London to linear peptides of protein E of SARS-CoV Urbani” value is 0.5, the “Binding of serum London to looped/cyclic peptides of protein E of SARS-CoV Urbani” value is given as 0.3, the “Binding of serum SARS-green to linear peptides of protein E of SARS-CoV Urbani” value is given as 0.3 and the “Binding of serum SARS-green to looped/cyclic peptides of protein E of SARS-CoV Urbani” value is listed as 0.3. Besides, in assay [2], the “Binding of serum SARS-yellow to linear peptides of protein E of SARS-CoV Urbani” value is 0.2 and the “Binding of serum SARS-yellow to looped/cyclic peptides of protein E of SARS-CoV Urbani” value came out at 0.4. For the same sequence, in assay [3], the “Binding of a rabbit serum to linear peptides” value stood at 0.6 and the “Binding of a rabbit serum to looped peptides” value is on record as 0.4.

As to VAALVFLILCFTIKR, in assay [1], the “Binding of Control Serum Blood-Bank to Looped peptides” value is reported as 0.8, the “Binding of Control serum Blood-bank to linear peptides” value turned out to be 0.5, the “Binding of Control serum LUMC to linear peptides” value is given as 0.4 and the “Binding of Control serum LUMC to looped peptides” value came to 0.6. Further, in assay [2], the “Binding of serum 1a to linear peptides of protein X4 of SARS-CoV Urbani” value came to 0.6, the “Binding of serum 1a to looped/cyclic peptides of protein X4 of SARS-CoV Urbani” value was 0.8, the “Binding of serum 1b to linear peptides of protein X4 of SARS-CoV Urbani” value was determined as 0.5 and the “Binding of serum 1b to looped/cyclic peptides of protein X4 of SARS-CoV Urbani” value is 0.4. Also, in assay [2], the “Binding of serum 2 to linear peptides of protein X4 of SARS-CoV Urbani” value is recorded as 0.4, the “Binding of serum 2 to looped/cyclic peptides of protein X4 of SARS-CoV Urbani” value is recorded as 0.7, the “Binding of serum 6 to linear peptides of protein X4 of SARS-CoV Urbani” value amounted to 0.5 and the “Binding of serum 6 to looped/cyclic peptides of protein X4 of SARS-CoV Urbani” value came to 0.6. For the same sequence, in assay [2], the “Binding of serum 37 to linear peptides of protein X4 of SARS-CoV Urbani” value stood at 0.7, the “Binding of serum 37 to looped/cyclic peptides of protein X4 of SARS-CoV Urbani” value was 0.7, the “Binding of serum 62 to linear peptides of protein X4 of SARS-CoV Urbani” value was 0.7 and the “Binding of serum 62 to looped/cyclic peptides of protein X4 of SARS-CoV Urbani” value worked out at 0.7. In assay [2], the “Binding of serum London to linear peptides of protein X4 of SARS-CoV Urbani” value is listed as 0.6, the “Binding of serum London to looped/cyclic peptides of protein X4 of SARS-CoV Urbani” value is given as 0.3, the “Binding of serum SARS-green to linear peptides of protein X4 of SARS-CoV Urbani” value amounted to 0.5 and the “Binding of serum SARS-green to looped/cyclic peptides of protein X4 of SARS-CoV Urbani” value came to 0.4. In assay [2], the “Binding of serum SARS-yellow to linear peptides of protein X4 of SARS-CoV Urbani” value amounted to 0.5 and the “Binding of serum SARS-yellow to looped/cyclic peptides of protein X4 of SARS-CoV Urbani” value was determined as 0.5. Moreover, in assay [3], the “Rabbit serum linear peptides” value was 0.5 and the “Rabbit serum looped peptides” value was determined as 0.6.

As for LVTLAILTALRLCAY, in assay [1], the “Binding of Control Serum Blood-Bank to Looped peptides” value was determined as 0.6, the “Binding of Control serum Blood-bank to linear peptides” value amounted to 0.6, the “Binding of Control serum LUMC to linear peptides” value came out at 0.3 and the “Binding of Control serum LUMC to looped peptides” value was 0.8. Also, in assay [2], the “Binding of serum 1a to linear peptides of protein E of SARS-CoV Urbani” value is 0.8, the “Binding of serum 1a to looped/cyclic peptides of protein E of SARS-CoV Urbani” value was found to be 0.6, the “Binding of serum 1b to linear peptides of protein E of SARS-CoV Urbani” value came out at 0.5 and the “Binding of serum 1b to looped/cyclic peptides of protein E of SARS-CoV Urbani” value was 0.5. Further, in assay [2], the “Binding of serum 2 to linear peptides of protein E of SARS-CoV Urbani” value is reported as 0.6, the “Binding of serum 2 to looped/cyclic peptides of protein E of SARS-CoV Urbani” value turned out to be 1.0, the “Binding of serum 6 to linear peptides of protein E of SARS-CoV Urbani” value came out at 0.7 and the “Binding of serum 6 to looped/cyclic peptides of protein E of SARS-CoV Urbani” value is recorded as 0.4. In assay [2], the “Binding of serum 37 to linear peptides of protein E of SARS-CoV Urbani” value amounted to 0.7, the “Binding of serum 37 to looped/cyclic peptides of protein E of SARS-CoV Urbani” value came to 0.7, the “Binding of serum 62 to linear peptides of protein E of SARS-CoV Urbani” value is 0.7 and the “Binding of serum 62 to looped/cyclic peptides of protein E of SARS-CoV Urbani” value was found to be 0.6. Further, in assay [2], the “Binding of serum London to linear peptides of protein E of SARS-CoV Urbani” value is 0.5, the “Binding of serum London to looped/cyclic peptides of protein E of SARS-CoV Urbani” value was 0.4, the “Binding of serum SARS-green to linear peptides of protein E of SARS-CoV Urbani” value was determined as 0.3 and the “Binding of serum SARS-green to looped/cyclic peptides of protein E of SARS-CoV Urbani” value is 0.6. Moreover, in assay [2], the “Binding of serum SARS-yellow to linear peptides of protein E of SARS-CoV Urbani” value came out at 0.1 and the “Binding of serum SARS-yellow to looped/cyclic peptides of protein E of SARS-CoV Urbani” value amounted to 0.4. Moreover, in assay [3], the “Binding of a rabbit serum to linear peptides” value came out at 0.4 and the “Binding of a rabbit serum to looped peptides” value stood at 0.3.
